From patent publication US10342809B2, “Neuroactive 19-alkoxy-17-substituted steroids, prodrugs thereof, and methods of treatment using same” (priority 2012, dated 2019)
Like-named read-outs stand apart in the source and are kept apart here.

Legend:
Tadpole = Tadpole loss of righting reflex (LRR) and loss of swimming reflex (LSR); type: in vivo; conditions: ± SEM
Method: Table 3 discloses the anesthetic effects of the compounds of the present disclosure. In particular, the anesthetic effect of the compounds of the present disclosure on Loss of Righting Reflex (LRR) and Loss of Swimming Reflex (LSR).
Methods used are known in the art (see Jiang, X., et al.). Error limits are calculated as standard error of the mean (N=10 or more animals at each of five or more different concentrations).

[1] = target: T1, rat α1β2γ2L type GABAA receptors expressed in Xenopus laevis oocytes (Rattus norvegicus, UniProt P62813+P63138); assay: Oocyte electrophysiology: potentiation of GABA-mediated chloride currents and direct gating; type: cell-based; conditions: 2 μM GABA, ± SEM, N ≥4; for oocyte electrophysiology 0.1 μM: ratio of currents in presence/absence of 0.1 μM compound; for oocyte electrophysiology 1 μM: ratio of currents in presence/absence of 1 μM compound; for oocyte electrophysiology 10 μM: ratio of currents in presence/absence of 10 μM compound
T1 construct: expressed in transfected cells; host or cells: Xenopus laevis oocytes
Method: The compounds of the present disclosure were evaluated for the ability to potentiate chloride currents mediated by 2 μM GABA at rat α1β2γ2L type GABAA receptors expressed in Xenopus laevis oocytes and the results are shown in Table 2.

[2] = target: T1, rat α1β2γ2L type GABAA receptors expressed in Xenopus laevis oocytes; assay: as above; type: cell-based; conditions: direct current gated by 10 μM compound in absence of GABA; ratio of compound only current/2 μM GABA current
[3] = target: picrotoxin binding site on GABAA receptors; assay: [35S]-TBPS displacement (inhibition of [35S]-TBPS binding); conditions: non-competitive displacement; duplicate experiments in triplicate; ± SEM
From the text: The IC50 values for non-competitive displacers of [^35S]-TBPS from the picrotoxin binding site on GABAA receptors are reported in Table 1.

[4] = loss of righting reflex, read-out: Tadpole LRR EC50
[5] = loss of swimming reflex, read-out: Tadpole LSR EC50

T1 sequence (P62813 28-455): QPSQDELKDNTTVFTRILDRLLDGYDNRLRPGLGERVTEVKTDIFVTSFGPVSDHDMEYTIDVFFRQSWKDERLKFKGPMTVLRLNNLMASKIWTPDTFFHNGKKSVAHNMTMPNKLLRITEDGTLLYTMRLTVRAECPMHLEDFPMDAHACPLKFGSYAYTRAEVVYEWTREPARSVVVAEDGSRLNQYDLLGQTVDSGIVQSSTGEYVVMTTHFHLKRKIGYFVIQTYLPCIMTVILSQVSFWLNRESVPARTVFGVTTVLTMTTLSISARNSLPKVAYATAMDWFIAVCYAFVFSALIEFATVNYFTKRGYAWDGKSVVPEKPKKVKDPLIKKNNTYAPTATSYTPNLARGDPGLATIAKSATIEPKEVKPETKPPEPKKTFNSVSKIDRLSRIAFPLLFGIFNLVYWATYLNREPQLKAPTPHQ
T1 sequence (P63138 26-474): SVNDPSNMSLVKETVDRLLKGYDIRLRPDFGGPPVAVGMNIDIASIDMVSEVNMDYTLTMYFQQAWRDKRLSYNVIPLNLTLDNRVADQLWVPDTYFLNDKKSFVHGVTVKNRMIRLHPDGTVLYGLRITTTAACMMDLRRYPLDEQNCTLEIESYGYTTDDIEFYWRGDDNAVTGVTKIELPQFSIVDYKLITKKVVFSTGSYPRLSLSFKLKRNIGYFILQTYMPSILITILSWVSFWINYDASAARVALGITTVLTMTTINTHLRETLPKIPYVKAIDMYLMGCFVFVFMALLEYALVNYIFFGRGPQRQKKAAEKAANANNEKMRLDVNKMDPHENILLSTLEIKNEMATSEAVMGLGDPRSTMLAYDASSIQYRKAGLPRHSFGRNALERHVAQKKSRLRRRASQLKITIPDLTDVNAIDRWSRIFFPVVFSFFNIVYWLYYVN
T1 sequence (P18508 with tags, fused parts or gaps INS375LLRMFSFK partner): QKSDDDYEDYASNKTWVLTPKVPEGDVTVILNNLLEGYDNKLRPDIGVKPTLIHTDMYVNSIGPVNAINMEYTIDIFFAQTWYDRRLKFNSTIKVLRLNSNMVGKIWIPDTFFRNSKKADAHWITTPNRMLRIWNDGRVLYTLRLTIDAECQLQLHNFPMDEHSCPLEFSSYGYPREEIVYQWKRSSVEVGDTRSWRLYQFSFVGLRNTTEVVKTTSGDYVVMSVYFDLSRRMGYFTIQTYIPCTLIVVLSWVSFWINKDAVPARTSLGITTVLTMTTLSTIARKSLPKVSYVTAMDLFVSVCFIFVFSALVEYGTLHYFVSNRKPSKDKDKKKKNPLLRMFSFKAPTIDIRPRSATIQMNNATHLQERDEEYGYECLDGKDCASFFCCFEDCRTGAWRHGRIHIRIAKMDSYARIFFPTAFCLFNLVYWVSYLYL

Compound: COC[C@]12CCC(O)CC1CC[C@@H]1[C@@H]2CC[C@]2(C)C(=O)CC[C@@H]12 (stereo in doubt) [Compound 30, (3α,5β)-3-Hydroxy-19-methoxyandrostan-17-one]
- EC50 (Tadpole; [4]): > 10 µM
- oocyte electrophysiology 0.1 μM [1]: 0.90 ± 0.02
- oocyte electrophysiology 1 μM [1]: 0.88 ± 0.01
- oocyte electrophysiology 10 μM [1]: 0.84 ± 0.02

Compound: COC[C@]12CCC(=O)C[C@@H]1CC[C@H]1[C@@H]3CC[C@H](OC)[C@@]3(C)CC[C@@H]12 [Compound 7, (5α,17β)-17,19-Dimethoxyandrostan-3-one]
- EC50 (Tadpole; [4]): 1.71 ± 0.25 µM
- EC50 (Tadpole; [5]): 5.48 ± 0.12 µM
- oocyte electrophysiology (gating) 10 μM [2]: 0.04 ± 0.03
- melting point: 91 to 93 °C
- oocyte electrophysiology 0.1 μM [1]: 1.00 ± 0
- oocyte electrophysiology 1 μM [1]: 0.85 ± 0.01
- oocyte electrophysiology 10 μM [1]: 1.07 ± 0.02

Compound: COC[C@]12CC[C@@H](O)C[C@@H]1CC[C@H]1[C@@H]3CC[C@H](OC)[C@@]3(C)CC[C@@H]12 [Compound 8, (5α,17β)-17,19-Dimethoxyandrostan-3-ol]
- EC50 (Tadpole; [4]): 332 ± 43 µM
- EC50 (Tadpole; [5]): 1.07 ± 0.01 µM
- oocyte electrophysiology (gating) 10 μM [2]: 0.22 ± 0.01
- oocyte electrophysiology 0.1 μM [1]: 1.65 ± 0.08
- oocyte electrophysiology 1 μM [1]: 7.63 ± 0.77
- oocyte electrophysiology 10 μM [1]: 20.9 ± 2.73

Compound: COC[C@]12CC[C@@H](O)C[C@@H]1CC[C@@H]1[C@@H]2CC[C@]2(C)C(=O)CC[C@@H]12 [Compound 11, (3α,5α)-3-Hydroxy-19-methoxyandrostan-17-one]
- EC50 (Tadpole; [4]): 7.95 ± 3.29 µM
- EC50 (Tadpole; [5]): 17.3 ± 0.2 µM
- oocyte electrophysiology (gating) 10 μM [2]: 0 ± 0.07
- IC50 [3]: 4.3 µM
- oocyte electrophysiology 0.1 μM [1]: 0.71 ± 0.02
- oocyte electrophysiology 1 μM [1]: 0.76 ± 0.07
- oocyte electrophysiology 10 μM [1]: 2.17 ± 0.12

Compound: COC[C@]12CC[C@@H](O)C[C@@H]1CC[C@@H]1[C@@H]2CC[C@@]2(C)[C@H]1CC[C@@]21CO1 [Compound 12, (3α,5α,17β)-19-Methoxyspiro[androstane-17,2′-oxiran]-3-ol]
- EC50 (Tadpole; [4]): 1.73 ± 0.05 µM
- EC50 (Tadpole; [5]): 3.54 ± 2.33 µM
- oocyte electrophysiology (gating) 10 μM [2]: 0.14 ± 0.04
- oocyte electrophysiology 0.1 μM [1]: 1.24 ± 0.05
- oocyte electrophysiology 1 μM [1]: 7.40 ± 1.43
- oocyte electrophysiology 10 μM [1]: 18.7 ± 6.19

Compound: COC[C@]12CC[C@@H](O)C[C@@H]1CC[C@@H]1[C@@H]2CC[C@]2(C)C(C#N)=CC[C@@H]12 [Compound 15, (3α,5α)-3-Hydroxy-19-methoxyandrost-16-ene-17-carbonitrile]
- EC50 (Tadpole; [4]): 1.22 ± 0.94 µM
- EC50 (Tadpole; [5]): 2.71 µM
- oocyte electrophysiology (gating) 10 μM [2]: 0.10 ± 0.09
- oocyte electrophysiology 0.1 μM [1]: 1.27 ± 0.13
- oocyte electrophysiology 1 μM [1]: 5.34 ± 0.86
- oocyte electrophysiology 10 μM [1]: 25.6 ± 3.23

Compound: COC[C@]12CC[C@@H](O)C[C@@H]1CC[C@H]1[C@@H]3CC[C@H](C#N)[C@@]3(C)CC[C@@H]12 [Compound 16, (3α,5α,17β)-3-Hydroxy-19-methoxyandrostane-17-carbonitrile]
- EC50 (Tadpole; [4]): 0.36 ± 0.04 µM
- EC50 (Tadpole; [5]): 0.99 ± 0.17 µM
- oocyte electrophysiology (gating) 10 μM [2]: 0.25 ± 0.11
- oocyte electrophysiology 0.1 μM [1]: 1.52 ± 0.02
- oocyte electrophysiology 1 μM [1]: 9.79 ± 0.53
- oocyte electrophysiology 10 μM [1]: 25.7 ± 2.11

Compound: COC[C@]12CC[C@@H](O)C[C@@H]1CC[C@H]1[C@@H]3CC[C@H](C(C)=O)[C@@]3(C)CC[C@@H]12 [Compound 17, (3α,5α)-3-Hydroxy-19-methoxypregnan-20-one]
- EC50 (Tadpole; [4]): 0.36 ± 0.04 µM
- EC50 (Tadpole; [5]): 1.71 ± 0.03 µM
- oocyte electrophysiology (gating) 10 μM [2]: 0.23 ± 0.07
- oocyte electrophysiology 0.1 μM [1]: 2.15 ± 0.19
- oocyte electrophysiology 1 μM [1]: 12.8 ± 1.74
- oocyte electrophysiology 10 μM [1]: 33.8 ± 5.44

Compound: COC[C@]12CC[C@@H](O)C[C@@H]1CC[C@H]1[C@@H]3CC[C@H](C(=O)CO)[C@@]3(C)CC[C@@H]12 [Compound 20, (3α,5α)-3,21-Dihydroxy-19-methoxypregnan-20-one]
- EC50 (Tadpole; [4]): 3.15 ± 0.5 µM
- EC50 (Tadpole; [5]): 5.48 ± 0.12 µM
- oocyte electrophysiology (gating) 10 μM [2]: 0.09 ± 0.05
- oocyte electrophysiology 0.1 μM [1]: 0.98 ± 0.01
- oocyte electrophysiology 1 μM [1]: 2.76 ± 0.27
- oocyte electrophysiology 10 μM [1]: 19.0 ± 2.31

Compound: COC[C@]12CCC(=O)C=C1CC[C@@H]1[C@@H]2CC[C@]2(C)[C@@H](OC)CC[C@@H]12 [Compound 24, (17β)-17,19-Dimethoxyandrost-4-en-3-one]
- oocyte electrophysiology (gating) 10 μM [2]: 0.11 ± 0.17
- oocyte electrophysiology 0.1 μM [1]: 0.88 ± 0.08
- oocyte electrophysiology 1 μM [1]: 0.63 ± 0.06
- oocyte electrophysiology 10 μM [1]: 1.06 ± 0.17

Compound: COC[C@]12CC[C@@H](O)CC1=CC[C@@H]1[C@@H]2CC[C@]2(C)[C@@H](OC)CC[C@@H]12 [Compound 25, (3α,17β)-17, 19-Dimethoxyandrost-5-en-3-ol]
- EC50 (Tadpole; [4]): 3.38 ± 0.38 µM
- EC50 (Tadpole; [5]): 10.5 µM
- oocyte electrophysiology (gating) 10 μM [2]: 0.08 ± 0.07
- oocyte electrophysiology 0.1 μM [1]: 0.94 ± 0.07
- oocyte electrophysiology 1 μM [1]: 1.97 ± 0.08
- oocyte electrophysiology 10 μM [1]: 15.7 ± 0.90

Compound: COC[C@]12CC[C@H](O)CC1=CC[C@@H]1[C@@H]2CC[C@]2(C)[C@@H](OC)CC[C@@H]12 [Compound 26, (3β,17β)-17, 19-Dimethoxyandrost-5-en-3-ol]
- oocyte electrophysiology (gating) 10 μM [2]: 0.02 ± 0.02
- oocyte electrophysiology 0.1 μM [1]: 0.83 ± 0.03
- oocyte electrophysiology 1 μM [1]: 0.76 ± 0.02
- oocyte electrophysiology 10 μM [1]: 0.78 ± 0.02

Compound: COC[C@]12CC[C@@H](O)C[C@@H]1CC[C@H]1[C@@H]3CC[C@H]([N+](=O)[O-])[C@@]3(C)CC[C@@H]12 [Compound 29, (3α,5α,17β)-19-methoxy-17-nitroandrostan-3-ol]
- EC50 (Tadpole; [4]): 0.16 ± 0.01 µM
- EC50 (Tadpole; [5]): 0.55 ± 0.01 µM
- oocyte electrophysiology (gating) 10 μM [2]: 0.11 ± 0.01
- oocyte electrophysiology 0.1 μM [1]: 2.07 ± 0.09
- oocyte electrophysiology 1 μM [1]: 15.7 ± 1.45
- oocyte electrophysiology 10 μM [1]: 26.6 ± 4.34

Compound: COC[C@]12CC[C@H](O)C[C@@H]1CC[C@H]1[C@@H]3CC[C@H](OC)[C@@]3(C)CC[C@@H]12 [Compound 31, (3β,5α,17β)-17, 19-Dimethoxyandrostan-3-ol]
- EC50 (Tadpole; [4]): 7.04 ± 1.98 µM
- EC50 (Tadpole; [5]): 16.8 ± 5.9 µM
- oocyte electrophysiology (gating) 10 μM [2]: 0.02 ± 0
- oocyte electrophysiology 0.1 μM [1]: 0.91 ± 0.02
- oocyte electrophysiology 1 μM [1]: 0.97 ± 0.05
- oocyte electrophysiology 10 μM [1]: 1.10 ± 0.05
